Drawing on ChEMBL document CHEMBL1833797, “Microwave assisted synthesis and antimicrobial evaluation of new fused pyran derivatives bearing 2-morpholinoquinoline nucleus” (2011), this text covers MIC for 14 molecules.

One assay relates to Clostridium tetani. Kind of assay: Antimicrobial activity against Clostridium tetani MTCC 449 for 24 hrs by microdilution method. The assay is classed as functional. The conditions noted are these: MTCC 449, 24 h.
The subject of another assay is Escherichia coli. Kind of assay: Antimicrobial activity against Escherichia coli MTCC 443 for 24 hrs by microdilution method. The assay is classed as functional. The conditions noted are these: MTCC 443, 24 h.
The test system of a further assay is Candida albicans. Description: Antifungal activity against Candida albicans MTCC 227 for 48 hrs by microdilution method. The assay is classed as functional.
Another assay concerns Streptococcus pneumoniae. Description: Antimicrobial activity against Streptococcus pneumoniae MTCC 1936 for 24 hrs by microdilution method. The format is functional. The conditions noted are these: MTCC 1936, 24 h.
The subject of a further assay is Salmonella typhi. Kind of assay: Antimicrobial activity against Salmonella typhi MTCC 98 for 24 hrs by microdilution method. The assay is classed as functional, Salmonella enterica subsp. enterica serovar Typhi. Conditions: Salmonella enterica, MTCC 98, 24 h.
The next assay deals with Aspergillus fumigatus. Kind of assay: Antifungal activity against Aspergillus fumigatus MTCC 3008 for 48 hrs by microdilution method. The assay is classed as functional.
For a further assay, the system named is Vibrio cholerae. Description: Antimicrobial activity against Vibrio cholerae MTCC 3906 for 24 hrs by microdilution method. The format is functional. Conditions: MTCC 3906, 24 h.
The next assay concerns Bacillus subtilis. Description: Antimicrobial activity against Bacillus subtilis MTCC 441 for 24 hrs by microdilution method. The format is functional. The conditions noted are these: MTCC 441, 24 h.

≈ marks a conversion by molar mass, not a printed value.

Regarding `COc1ccc2nc(N3CCOCC3)c(C3C(C#N)=C(N)Oc4cc(O)ccc43)cc2c1` (stereo not given), the MIC against Clostridium tetani came out at 250 µg/mL (≈ 581 µM); in the assay on Escherichia coli it was 250 µg/mL (≈ 581 µM); against Candida albicans (MTCC 227, 48 h), 500 µg/mL (≈ 1160 µM); in the assay with Streptococcus pneumoniae it was 12.5 µg/mL (≈ 29 µM); in the assay with Salmonella typhi it was 250 µg/mL (≈ 581 µM); against Aspergillus fumigatus (MTCC 3008, 48 h) it was 500 µg/mL (≈ 1160 µM). Moreover, the MIC with Vibrio cholerae came to 250 µg/mL (≈ 581 µM); against Bacillus subtilis, 200 µg/mL (≈ 465 µM).

As for `N#CC1=C(N)OC2=C(C(=O)c3ccccc3C2=O)C1c1cc2ccccc2nc1N1CCOCC1` (stereo not given), the MIC in the assay with Clostridium tetani is 500 µg/mL (≈ 1080 µM); in the assay on Escherichia coli, 200 µg/mL (≈ 431 µM); in the assay with Candida albicans (MTCC 227, 48 h), 100 µg/mL (≈ 215 µM); against Streptococcus pneumoniae it was 500 µg/mL (≈ 1080 µM); with Salmonella typhi, 12.5 µg/mL (≈ 26.9 µM); in the assay on Aspergillus fumigatus (MTCC 3008, 48 h), greater than 1000 µg/mL. Also, the MIC against Vibrio cholerae and against Bacillus subtilis was 500 µg/mL (≈ 1080 µM) each time.

Turning to `COc1ccc2nc(N3CCOCC3)c(C3C(C#N)=C(N)Oc4c3ccc3ccccc43)cc2c1` (stereo not given), the MIC with Clostridium tetani was 250 µg/mL (≈ 538 µM); in the assay with Escherichia coli it was 200 µg/mL (≈ 431 µM); in the assay on Candida albicans (MTCC 227, 48 h), 100 µg/mL (≈ 215 µM); in the assay with Streptococcus pneumoniae, 250 µg/mL (≈ 538 µM); in the assay on Salmonella typhi, 100 µg/mL (≈ 215 µM); in the assay with Aspergillus fumigatus (MTCC 3008, 48 h), 1000 µg/mL (≈ 2150 µM). Further, the MIC stood at 200 µg/mL (≈ 431 µM) in the assay on Vibrio cholerae and 250 µg/mL (≈ 538 µM) in the assay on Bacillus subtilis.

For the molecule `COc1ccc2nc(N3CCOCC3)c(C3C(C#N)=C(N)Oc4[nH]nc(C)c43)cc2c1` (stereo not given), the MIC came to 250 µg/mL (≈ 597 µM) in the assay on Clostridium tetani; 250 µg/mL (≈ 597 µM) against Escherichia coli; 250 µg/mL (≈ 597 µM) against Candida albicans (MTCC 227, 48 h); 200 µg/mL (≈ 478 µM) against Streptococcus pneumoniae; 250 µg/mL (≈ 597 µM) against Salmonella typhi; 500 µg/mL (≈ 1190 µM) against Aspergillus fumigatus (MTCC 3008, 48 h). The values for the MIC against Vibrio cholerae and against Bacillus subtilis were 250 µg/mL (≈ 597 µM) and 200 µg/mL (≈ 478 µM), respectively.

In the case of `Cc1ccc2nc(N3CCOCC3)c(C3C(C#N)=C(N)Oc4cc(O)ccc43)cc2c1` (stereo not given), the MIC against Clostridium tetani was 200 µg/mL (≈ 483 µM); in the assay with Escherichia coli, 200 µg/mL (≈ 483 µM); with Candida albicans (MTCC 227, 48 h), greater than 1000 µg/mL; against Streptococcus pneumoniae, 500 µg/mL (≈ 1210 µM); against Salmonella typhi, 200 µg/mL (≈ 483 µM); with Aspergillus fumigatus (MTCC 3008, 48 h) it was greater than 1000 µg/mL. Moreover, the MIC in the assay on Vibrio cholerae is 200 µg/mL (≈ 483 µM); in the assay on Bacillus subtilis, 500 µg/mL (≈ 1210 µM).

With `COc1ccc2nc(N3CCOCC3)c(C3C(C#N)=C(N)Oc4cc(C)oc(=O)c43)cc2c1` (stereo not given), the MIC with Clostridium tetani is 250 µg/mL (≈ 560 µM); against Escherichia coli, 200 µg/mL (≈ 448 µM); in the assay on Candida albicans (MTCC 227, 48 h) it was 250 µg/mL (≈ 560 µM); against Streptococcus pneumoniae, 250 µg/mL (≈ 560 µM); in the assay with Salmonella typhi it was 250 µg/mL (≈ 560 µM); against Aspergillus fumigatus (MTCC 3008, 48 h) it was 1000 µg/mL (≈ 2240 µM). For the same molecule, the minimum inhibitory concentration (MIC) against Vibrio cholerae was 250 µg/mL (≈ 560 µM); against Bacillus subtilis, 200 µg/mL (≈ 448 µM).

As to `Cc1ccc2nc(N3CCOCC3)c(C3C(C#N)=C(N)OC4=C3C(=O)CCC4)cc2c1` (stereo not given), the MIC is 200 µg/mL (≈ 480 µM) against Clostridium tetani; 200 µg/mL (≈ 480 µM) with Escherichia coli; 1000 µg/mL (≈ 2400 µM) with Candida albicans (MTCC 227, 48 h); 100 µg/mL (≈ 240 µM) in the assay with Streptococcus pneumoniae; 200 µg/mL (≈ 480 µM) against Salmonella typhi; greater than 1000 µg/mL in the assay on Aspergillus fumigatus (MTCC 3008, 48 h). The MIC in the assay on Vibrio cholerae and in the assay on Bacillus subtilis was 200 µg/mL (≈ 480 µM) throughout.

Turning to NYSTATIN, the MIC in the assay on Candida albicans and in the assay on Aspergillus fumigatus was 100 µg/mL throughout.

As for `COc1ccc2nc(N3CCOCC3)c(C3C(C#N)=C(N)Oc4c3c(=O)oc3ccccc43)cc2c1` (stereo not given), the MIC with Clostridium tetani amounted to 500 µg/mL (≈ 1040 µM); in the assay with Escherichia coli it was 500 µg/mL (≈ 1040 µM); with Candida albicans (MTCC 227, 48 h) it was 200 µg/mL (≈ 415 µM); against Streptococcus pneumoniae it was 200 µg/mL (≈ 415 µM); against Salmonella typhi, 500 µg/mL (≈ 1040 µM); in the assay on Aspergillus fumigatus (MTCC 3008, 48 h), 1000 µg/mL (≈ 2070 µM). The MIC was found to be 500 µg/mL (≈ 1040 µM) in the assay with Vibrio cholerae and 200 µg/mL (≈ 415 µM) against Bacillus subtilis.

Turning to `CC1(C)S[C@@H]2[C@H](NC(=O)[C@H](N)c3ccccc3)C(=O)N2[C@H]1C(=O)O` [AMPICILLIN], the minimal inhibitory concentration (MIC) was 250 µg/mL (≈ 715 µM) in the assay on Clostridium tetani; 100 µg/mL (≈ 286 µM) with Escherichia coli; 100 µg/mL (≈ 286 µM) against Streptococcus pneumoniae; 100 µg/mL (≈ 286 µM) in the assay with Salmonella typhi; 100 µg/mL (≈ 286 µM) in the assay on Vibrio cholerae; 250 µg/mL (≈ 715 µM) with Bacillus subtilis.

`Cc1ccc2nc(N3CCOCC3)c(C3C(C#N)=C(N)OC4=C3C(=O)c3ccccc3C4=O)cc2c1` (stereo not given): the MIC with Clostridium tetani is 250 µg/mL (≈ 522 µM); against Escherichia coli, 250 µg/mL (≈ 522 µM); against Candida albicans (MTCC 227, 48 h), greater than 1000 µg/mL; with Streptococcus pneumoniae, 100 µg/mL (≈ 209 µM); against Salmonella typhi, 100 µg/mL (≈ 209 µM); with Aspergillus fumigatus (MTCC 3008, 48 h) it was greater than 1000 µg/mL. For the same molecule, the figures for the minimal inhibitory concentration (MIC) against Vibrio cholerae and in the assay on Bacillus subtilis were 250 µg/mL (≈ 522 µM) and 200 µg/mL (≈ 418 µM), respectively.

For the molecule `N#CC1=C(N)Oc2c(c(=O)oc3ccccc23)C1c1cc2ccccc2nc1N1CCOCC1` (stereo not given), the minimal inhibitory concentration (MIC) against Clostridium tetani amounted to 200 µg/mL (≈ 442 µM); against Escherichia coli, 200 µg/mL (≈ 442 µM); against Candida albicans (MTCC 227, 48 h) it was 500 µg/mL (≈ 1110 µM); against Streptococcus pneumoniae, 250 µg/mL (≈ 553 µM); with Salmonella typhi, 100 µg/mL (≈ 221 µM); in the assay with Aspergillus fumigatus (MTCC 3008, 48 h), 500 µg/mL (≈ 1110 µM). In addition, the MIC in the assay with Vibrio cholerae and against Bacillus subtilis was 250 µg/mL (≈ 553 µM) throughout.

Consider `O=C(N[C@H](CO)[C@H](O)c1ccc([N+](=O)[O-])cc1)C(Cl)Cl` [CHLORAMPHENICOL], for which the MIC against Clostridium tetani, against Escherichia coli, with Streptococcus pneumoniae, against Salmonella typhi, in the assay with Vibrio cholerae and with Bacillus subtilis was 50 µg/mL (≈ 155 µM) in each case.

With `CCn1cc(C(=O)O)c(=O)c2cc(F)c(N3CCNCC3)cc21` [NORFLOXACIN], the MIC turned out to be 50 µg/mL (≈ 157 µM) in the assay with Clostridium tetani; 10 µg/mL (≈ 31.3 µM) with Escherichia coli; 10 µg/mL (≈ 31.3 µM) in the assay on Streptococcus pneumoniae; 10 µg/mL (≈ 31.3 µM) against Salmonella typhi; 10 µg/mL (≈ 31.3 µM) in the assay with Vibrio cholerae; 100 µg/mL (≈ 313 µM) in the assay on Bacillus subtilis.
